According to US12577206B2 (BRISTOL-MYERS SQUIBB COMPANY, priority 2020, dated 2026):

Molecular target: T1, human FPR2 (Homo sapiens, UniProt P25090)
T1 sequence (P25090 1-351): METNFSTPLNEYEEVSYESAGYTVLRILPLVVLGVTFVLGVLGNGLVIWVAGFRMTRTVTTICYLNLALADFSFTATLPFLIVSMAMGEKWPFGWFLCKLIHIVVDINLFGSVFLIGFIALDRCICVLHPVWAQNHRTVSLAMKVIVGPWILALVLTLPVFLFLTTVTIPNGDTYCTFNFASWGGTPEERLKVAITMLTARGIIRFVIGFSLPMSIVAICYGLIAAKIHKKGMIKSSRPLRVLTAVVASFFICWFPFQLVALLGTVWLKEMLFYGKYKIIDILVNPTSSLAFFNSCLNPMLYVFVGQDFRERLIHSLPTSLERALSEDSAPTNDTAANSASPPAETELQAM
Experiment: FPR2 cyclic adenosine monophosphate (cAMP) assay
Type: cell-based
Conditions: CHO cells overexpressing human FPR2; forskolin 5 μM; inhibition of cAMP production; HTRF; read-out: hFPR2 cAMP2 EC50
Text: (§1) N-formyl peptide receptors (FPRs) are a family of chemo attractant receptors that facilitate leukocyte response during inflammation. FPRs belong to the seven-transmembrane G protein-coupled receptor superfamily and are linked to inhibitory G-proteins (Gi). Three family members (FPR1, FPR2 and FPR3) have been identified in humans and are predominantly found in myeloid cells with varied distribution and have also been reported in multiple organs and tissues. After agonist binding, the FPRs activate a multitude of physiological pathways, such as intra cellular signaling transduction, Ca^2+ mobilization and transcription. The family interacts with a diverse set of ligands that includes proteins, polypeptides and fatty acid metabolites which activate both pro-inflammatory and pro-resolution downstream responses. FPR2 and FPR1 Cyclic Adenosine Monophosphate (cAMP) Assays were used to measure the in vitro activity of the compounds disclosed in this application.
(§2) FPR2 and FPR1 Cyclic Adenosine Monophosphate (cAMP) Assays. A mixture of forskolin (5 μM final for FPR2 or 10 μM final for FPR1) and IBMX (200 μM final) were added to 384-well Proxiplates (Perkin-Elmer) pre-dotted with test compounds in DMSO (1% final) at final concentrations in the range of 0.020 nM to 100 μM. Chinese Hamster Ovary cells (CHO) overexpressing human FPR1 or human FPR2 receptors were cultured in F-12 (Ham's) medium supplemented with 10% qualified FBS, 250 μg/mL zeocin and 300 μg/mL hygromycin (Life Technologies). Reactions were initiated by adding 2,000 human FPR2 cells per well or 4,000 human FPR1 cells per well in Dulbecco's PBS (with calcium and magnesium) (Life Technologies) supplemented with 0.1% BSA (Perkin-Elmer). The reaction mixtures were incubated for 30 min at rt. The level of intracellular cAMP was determined using the HTRF HiRange cAMP assay reagent kit (Cisbio) according to manufacturer's instruction. Solutions of cryptate conjugated anti-cAMP and d2 flurorophore-labeled cAMP were made in a supplied lysis buffer separately. Upon completion of the reaction, the cells were lysed with equal volume of the d2-cAMP solution and anti-cAMP solution. […] The potency and activity of a compound to inhibit cAMP production was then determined by fitting to a 4-parametric logistic equation from a plot of cAMP level versus compound concentrations.

Structure (SMILES) | EC50 [nM]
COc1cc(F)c(-c2c(NC(=O)c3ccc(OC(F)F)cc3)c(=O)n(-c3cccc(C)c3C)n2C)c(F)c1 [Example 3, N-[5-(2,6-difluoro-4-methoxyphenyl)-2-(2,3-dimethylphenyl)-1-methyl-3-oxo-2,3-dihydro-1H-pyrazol-4-yl]-4-(difluoromethoxy)benzamide] | 8
COc1cc(N2CCCC2)nc(-n2c(=O)c(NC(=O)c3ccc(OC(F)F)cc3)c(-c3c(F)cc(OC)cc3F)n2C)c1 [Example 91, N-(5-(2,6-difluoro-4-methoxyphenyl)-2-(4-methoxy-6-(pyrrolidin-1-yl)pyridin-2-yl)-1-methyl-3-oxo-2,3-dihydro-1H-pyrazol-4-yl)-4-(difluoromethoxy)benzamide] | 20
COc1cc(NCCO)nc(-n2c(=O)c(NC(=O)c3ccc(OC(F)F)cc3)c(-c3c(F)cc(OC)cc3F)n2C)c1 [Example 94, N-[5-(2,6-difluoro-4-methoxyphenyl)-2-{6-[(2-hydroxyethyl)amino]-4-methoxypyridin-2-yl}-1-methyl-3-oxo-2,3-dihydro-1H-pyrazol-4-yl]-4-(difluoromethoxy)benzamide] | 6
COc1cc(N2CC(C)(O)C2)nc(-n2c(=O)c(NC(=O)c3ccc(OC(F)F)cc3)c(-c3c(F)cc(OC)cc3F)n2C)c1 [Example 96, N-[5-(2,6-difluoro-4-methoxyphenyl)-2-[6-(3-hydroxy-3-methylazetidin-1-yl)-4-methoxypyridin-2-yl]-1-methyl-3-oxo-2,3-dihydro-1H-pyrazol-4-yl]-4-(difluoromethoxy)benzamide] | 7
COc1cc(F)c(-c2c(NC(=O)c3ccc(OC(F)F)cc3)c(=O)n(-c3cccc(N4C[C@@H](C)N(C)[C@@H](C)C4)n3)n2C)c(F)c1 [Example 103, N-[5-(2,6-difluoro-4-methoxyphenyl)-1-methyl-3-oxo-2-{6-[(3R,5S)-3,4,5-trimethylpiperazin-1-yl]pyridin-2-yl}-2,3-dihydro-1H-pyrazol-4-yl]-4-(difluoromethoxy)benzamide] | 1
COc1cc(OC)cc(-n2c(=O)c(NC(=O)c3ccc(OC(F)F)cc3)c(-c3c(F)cc(OC)cc3F)n2C)c1 [Example 108] | 3
COc1cc(C2CCNCC2)nc(-n2c(=O)c(NC(=O)c3ccc(OC(F)F)cc3)c(-c3c(F)cc(OC)cc3F)n2C)c1 [Example 367, N-(5-(2,6-Difluoro-4-methoxyphenyl)-2-(4-methoxy-6-(piperidin-4-yl)pyridin-2-yl)-1-methyl-3-oxo-2,3-dihydro-1H-pyrazol-4-yl)-4-(difluoromethoxy)benzamide] | 1

More lines, now with the values ahead:

EC50 [nM] | Structure (SMILES)
12 | COc1cc(F)c(-c2c(NC(=O)c3ccc(OC(F)F)cc3)c(=O)n(-c3ccccc3)n2C)c(F)c1 [Example 1, N-[5-(2,6-difluoro-4-methoxyphenyl)-1-methyl-3-oxo-2-phenyl-2,3-dihydro-1H-pyrazol-4-yl]-4-(difluoromethoxy)benzamide]
12 | COc1cc(F)c(-c2c(NC(=O)c3ccc(OC(F)F)cc3)c(=O)n(-c3cc(C(F)F)ccn3)n2C)c(F)c1 [Example 76, N-[5-(2,6-difluoro-4-methoxyphenyl)-2-[4-(difluoromethyl)pyridin-2-yl]-1-methyl-3-oxo-2,3-dihydro-1H-pyrazol-4-yl]-4-(difluoromethoxy)benzamide]
8 | COc1cc(CO)nc(-n2c(=O)c(NC(=O)c3ccc(OC(F)F)cc3)c(-c3c(F)cc(OC)cc3F)n2C)c1 [Example 90, N-[5-(2,6-difluoro-4-methoxyphenyl)-2-[6-(hydroxymethyl)-4-methoxypyridin-2-yl]-1-methyl-3-oxo-2,3-dihydro-1H-pyrazol-4-yl]-4-(difluoromethoxy)benzamide]
8 | COc1cc(N2CC[C@@H](O)C2)nc(-n2c(=O)c(NC(=O)c3ccc(OC(F)F)cc3)c(-c3c(F)cc(OC)cc3F)n2C)c1 [Example 95, N-[5-(2,6-difluoro-4-methoxyphenyl)-2-{6-[(3R)-3-hydroxypyrrolidin-1-yl]-4-methoxypyridin-2-yl}-1-methyl-3-oxo-2,3-dihydro-1H-pyrazol-4-yl]-4-(difluoromethoxy)benzamide]
6 | COc1cc(N2CC[C@H](F)C2)nc(-n2c(=O)c(NC(=O)c3ccc(OC(F)F)cc3)c(-c3c(F)cc(OC)cc3F)n2C)c1 [Example 98, N-[5-(2,6-difluoro-4-methoxyphenyl)-2-{6-[(3S)-3-fluoropyrrolidin-1-yl]-4-methoxypyridin-2-yl}-1-methyl-3-oxo-2,3-dihydro-1H-pyrazol-4-yl]-4-(difluoromethoxy)benzamide]
5 | COc1cc(F)c(-c2c(NC(=O)c3ccc(OC(F)(F)F)cc3)c(=O)n(-c3cccc(F)c3)n2C)c(F)c1 [Example 2, N-[5-(2,6-difluoro-4-methoxyphenyl)-2-(3-fluorophenyl)-1-methyl-3-oxo-2,3-dihydro-1H-pyrazol-4-yl]-4-(trifluoromethoxy)benzamide]
5 | COc1cc(N2CC(OC(C)C)C2)nc(-n2c(=O)c(NC(=O)c3ccc(OC(F)F)cc3)c(-c3c(F)cc(OC)cc3F)n2C)c1 [Example 106, N-[5-(2,6-difluoro-4-methoxyphenyl)-2-{4-methoxy-6-[3-(propan-2-yloxy)azetidin-1-yl]pyridin-2-yl}-1-methyl-3-oxo-2,3-dihydro-1H-pyrazol-4-yl]-4-(difluoromethoxy)benzamide]
5 | COc1cc(F)c(-c2c(NC(=O)c3ccc(OC(F)F)cc3)c(=O)n(-c3cccc(N4CCN(CCO)CC4)n3)n2C)c(F)c1 [Example 107, N-[5-(2,6-difluoro-4-methoxyphenyl)-2-{6-[4-(2-hydroxyethyl)piperazin-1-yl]pyridin-2-yl}-1-methyl-3-oxo-2,3-dihydro-1H-pyrazol-4-yl]-4-(difluoromethoxy)benzamide]
4 | COc1cc(N2CCC(F)(F)C2)nc(-n2c(=O)c(NC(=O)c3ccc(OC(F)F)cc3)c(-c3c(F)cc(OC)cc3F)n2C)c1 [Example 99, N-[5-(2,6-difluoro-4-methoxyphenyl)-2-[6-(3,3-difluoropyrrolidin-1-yl)-4-methoxypyridin-2-yl]-1-methyl-3-oxo-2,3-dihydro-1H-pyrazol-4-yl]-4-(difluoromethoxy)benzamide]
3 | COc1cc(N2CCN(C)CC2)nc(-n2c(=O)c(NC(=O)c3ccc(OC(F)F)cc3)c(-c3c(F)cc(OC)cc3F)n2C)c1 [Example 101, N-[5-(2,6-difluoro-4-methoxyphenyl)-2-[4-methoxy-6-(4-methylpiperazin-1-yl)pyridin-2-yl]-1-methyl-3-oxo-2,3-dihydro-1H-pyrazol-4-yl]-4-(difluoromethoxy)benzamide]
1 | COc1cc(N2C3CCC2CN(C)C3)nc(-n2c(=O)c(NC(=O)c3ccc(OC(F)F)cc3)c(-c3c(F)cc(OC)cc3F)n2C)c1 [Example 105, N-[5-(2,6-difluoro-4-methoxyphenyl)-2-(4-methoxy-6-{3-methyl-3,8-diazabicyclo[3.2.1]octan-8-yl}pyridin-2-yl)-1-methyl-3-oxo-2,3-dihydro-1H-pyrazol-4-yl]-4-(difluoromethoxy)benzamide]

Molecular target: T2, human FPR1 (Homo sapiens, UniProt P21462)
T2 sequence (P21462 1-350): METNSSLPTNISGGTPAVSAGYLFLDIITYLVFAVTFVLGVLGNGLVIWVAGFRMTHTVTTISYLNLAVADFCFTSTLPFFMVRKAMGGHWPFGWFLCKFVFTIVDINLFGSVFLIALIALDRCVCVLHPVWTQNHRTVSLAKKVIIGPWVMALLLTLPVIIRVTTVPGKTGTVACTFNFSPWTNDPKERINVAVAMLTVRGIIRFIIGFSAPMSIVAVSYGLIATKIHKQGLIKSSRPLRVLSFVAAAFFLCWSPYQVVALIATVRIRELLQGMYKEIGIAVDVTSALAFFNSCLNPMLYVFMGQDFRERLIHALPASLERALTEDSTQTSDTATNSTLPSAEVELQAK
Experiment: FPR1 cyclic adenosine monophosphate (cAMP) assay
Type: cell-based
Conditions: CHO cells overexpressing human FPR1; forskolin 10 μM; inhibition of cAMP production; HTRF; read-out: hFPR1 cAMP2 EC50
Text: as §1, §2

Structure (SMILES) | EC50 [nM]
COc1cc(F)c(-c2c(NC(=O)c3ccc(OC(F)F)cc3)c(=O)n(-c3cccc(C)c3C)n2C)c(F)c1 [Example 3, N-[5-(2,6-difluoro-4-methoxyphenyl)-2-(2,3-dimethylphenyl)-1-methyl-3-oxo-2,3-dihydro-1H-pyrazol-4-yl]-4-(difluoromethoxy)benzamide] | 1900
COc1cc(F)c(-c2c(NC(=O)c3ccc(OC(F)F)cc3)c(=O)n(-c3cc(OC(C)C)cc(OCCO)n3)n2C)c(F)c1 [Example 378, N-(5-(2,6-Difluoro-4-methoxyphenyl)-2-(6-(2-hydroxyethoxy)-4-isopropoxypyridin-2-yl)-1-methyl-3-oxo-2,3-dihydro-1H-pyrazol-4-yl)-4-(difluoromethoxy)benzamide] | 25

Next, values leading:

EC50 [nM] | Structure (SMILES)
2400 | COc1cc(F)c(-c2c(NC(=O)c3ccc(OC(F)F)cc3)c(=O)n(-c3ccccc3)n2C)c(F)c1 [Example 1, N-[5-(2,6-difluoro-4-methoxyphenyl)-1-methyl-3-oxo-2-phenyl-2,3-dihydro-1H-pyrazol-4-yl]-4-(difluoromethoxy)benzamide]
210 | COc1cc(F)c(-c2c(NC(=O)c3ccc(OC(F)(F)F)cc3)c(=O)n(-c3cccc(F)c3)n2C)c(F)c1 [Example 2, N-[5-(2,6-difluoro-4-methoxyphenyl)-2-(3-fluorophenyl)-1-methyl-3-oxo-2,3-dihydro-1H-pyrazol-4-yl]-4-(trifluoromethoxy)benzamide]
